The text below walks through data of PMC9857996, “Inhibition of Iron Release from Donkey Spleen Ferritin through Malt-Derived Protein Z–Ferulic Acid Interactions” (Foods, 2023).

The target in this assay is T1, protein Z (PZ).
T1 construct: gene PAZ1; single band ~40 kDa; three Trp printed (Trp-150, Trp-186, Trp-257)
In words: Trp fluorescence quenching titration. Format: binding, Hordeum vulgare. The following applies: 50.0 mM sodium citrate pH 4.2, 25 °C; 1.0 μM PZ; n = 22.11 ± 2.13 sites per PZ; read-out: K.

For the compound `COc1cc(/C=C/C(=O)O)ccc1O` [ferulic acid], the Kd turned out to be 2 µM.
